Columns and labels:
[1] = biological target: T1, Alpha-1A adrenergic receptor (Homo sapiens, UniProt P35348); assay: Displacement of [125I]HEAT from human Alpha-1C adrenergic receptor expressed in CHO cells; format: cell-based
T1 sequence (P35348 whole entry): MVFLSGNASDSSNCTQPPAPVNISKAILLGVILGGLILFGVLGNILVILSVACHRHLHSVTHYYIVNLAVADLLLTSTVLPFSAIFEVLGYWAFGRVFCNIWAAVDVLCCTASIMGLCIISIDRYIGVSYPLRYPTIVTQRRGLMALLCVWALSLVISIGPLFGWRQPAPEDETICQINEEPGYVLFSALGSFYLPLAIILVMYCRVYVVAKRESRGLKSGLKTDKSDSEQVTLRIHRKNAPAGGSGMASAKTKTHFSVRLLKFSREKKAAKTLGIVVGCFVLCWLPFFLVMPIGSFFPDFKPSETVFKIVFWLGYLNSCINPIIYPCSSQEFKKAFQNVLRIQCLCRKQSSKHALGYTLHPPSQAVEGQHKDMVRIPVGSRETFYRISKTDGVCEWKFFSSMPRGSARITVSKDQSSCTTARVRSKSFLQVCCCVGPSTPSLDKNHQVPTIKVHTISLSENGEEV

[2] = biological target: T2, Alpha-1D adrenergic receptor (Homo sapiens, UniProt P25100); assay: Displacement of [125I]HEAT from human Alpha-1D adrenergic receptor expressed in HEK cells; format: cell-based, HEK293
T2 sequence (P25100 whole entry): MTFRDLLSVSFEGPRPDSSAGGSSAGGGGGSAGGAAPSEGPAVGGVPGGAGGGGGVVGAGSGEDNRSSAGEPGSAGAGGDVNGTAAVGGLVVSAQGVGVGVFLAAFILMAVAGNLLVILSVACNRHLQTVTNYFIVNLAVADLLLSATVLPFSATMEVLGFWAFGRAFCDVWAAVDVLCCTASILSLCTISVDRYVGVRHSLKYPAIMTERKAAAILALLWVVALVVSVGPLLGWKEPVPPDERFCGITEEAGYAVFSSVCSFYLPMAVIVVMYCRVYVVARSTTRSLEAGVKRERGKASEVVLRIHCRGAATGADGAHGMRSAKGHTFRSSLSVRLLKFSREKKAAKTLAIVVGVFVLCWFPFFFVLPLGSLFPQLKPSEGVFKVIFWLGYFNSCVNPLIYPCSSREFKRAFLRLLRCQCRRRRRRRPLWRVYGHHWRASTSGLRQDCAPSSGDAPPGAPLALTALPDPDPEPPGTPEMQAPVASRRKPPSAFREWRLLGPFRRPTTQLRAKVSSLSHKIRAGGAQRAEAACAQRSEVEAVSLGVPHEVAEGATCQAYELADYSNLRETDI

[3] = biological target: T3, Alpha-1B adrenergic receptor (Homo sapiens, UniProt P35368); assay: Displacement of [125I]HEAT from human Alpha-1B adrenergic receptor expressed in LM cells; format: cell-based
T3 sequence (P35368 whole entry): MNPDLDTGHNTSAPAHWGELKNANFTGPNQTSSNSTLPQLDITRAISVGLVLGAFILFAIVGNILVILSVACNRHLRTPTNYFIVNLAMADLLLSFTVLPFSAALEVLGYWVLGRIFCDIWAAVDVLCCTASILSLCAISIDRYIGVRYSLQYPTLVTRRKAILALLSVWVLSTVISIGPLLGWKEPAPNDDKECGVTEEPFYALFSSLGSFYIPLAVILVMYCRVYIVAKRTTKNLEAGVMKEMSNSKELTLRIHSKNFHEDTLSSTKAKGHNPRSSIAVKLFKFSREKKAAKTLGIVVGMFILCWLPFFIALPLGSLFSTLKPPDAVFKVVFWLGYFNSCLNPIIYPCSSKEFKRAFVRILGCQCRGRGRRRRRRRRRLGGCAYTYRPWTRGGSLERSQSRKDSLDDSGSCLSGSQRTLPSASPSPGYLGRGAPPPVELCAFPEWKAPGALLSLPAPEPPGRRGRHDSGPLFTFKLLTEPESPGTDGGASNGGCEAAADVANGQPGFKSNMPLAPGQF

Mustela putorius furo = species on record: Mustela putorius furo; assay: In vitro concentration required to increase the effective refractory period (ERP) above baseline was evaluated using isolated ferret papillary muscle preparations; format: functional; conditions: Muscle tissue
[4] = biological target: T1, Alpha-1A adrenergic receptor; assay: Ability to displace [125I]HEAT from cloned human Alpha-1A adrenergic receptor stably expressed in CHO cells; format: cell-based
[5] = biological target: T4, Alpha-1A adrenergic receptor (Rattus norvegicus, UniProt P43140); assay: Binding affinity against Alpha-1A adrenergic receptor in rat prostatic tissue
T4 sequence (P43140 whole entry): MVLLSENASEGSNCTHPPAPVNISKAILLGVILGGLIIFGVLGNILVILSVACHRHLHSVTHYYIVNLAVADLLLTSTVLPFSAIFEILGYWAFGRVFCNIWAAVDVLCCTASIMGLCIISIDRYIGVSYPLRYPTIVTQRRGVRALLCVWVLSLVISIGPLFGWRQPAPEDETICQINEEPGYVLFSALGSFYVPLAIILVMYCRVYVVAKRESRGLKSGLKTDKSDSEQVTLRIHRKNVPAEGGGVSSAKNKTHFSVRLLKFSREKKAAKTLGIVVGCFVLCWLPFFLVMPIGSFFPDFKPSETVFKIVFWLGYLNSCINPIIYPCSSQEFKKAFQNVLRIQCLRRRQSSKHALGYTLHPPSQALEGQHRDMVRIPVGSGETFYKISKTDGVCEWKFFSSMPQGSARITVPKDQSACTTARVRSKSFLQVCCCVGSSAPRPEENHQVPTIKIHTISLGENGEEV

[6] = biological target: T1, Alpha-1A adrenergic receptor; assay: Binding affinity against Alpha-1A adrenergic receptor in human prostatic tissue

Row | SMILES | Ki [1] [nM] | Ki [2] [nM] | Ki [3] [nM] | Ki [4] [nM] | Ki [5] [nM] | Ki [6] [nM] | EC25 (Mustela putorius furo) [nM]
1 | CS(=O)(=O)Nc1ccc2c(c1)OC1(CCN(CCc3ccccn3)CC1)CC2=O | 1670 | 3250 | > 2000 | – | – | – | 6600
2 | C1=CC2(CCN(CCc3cccc4ccccc34)CC2)Oc2ccccc21 | 71 | 200 | 53 | – | – | – | –
3 | O=C1CC2(CCN(CCc3cccc4ccccc34)CC2)Oc2ccccc21 | 53 | 67 | 48 | – | – | – | –
4 | O=C1c2ccccc2CC12CCN(CCc1cccc3ccccc13)CC2 | 31 | 149 | 49 | – | – | – | –
5 | COc1ccccc1CCN1CCC2(CC1)CC(=O)c1ccc(NS(C)(=O)=O)cc1O2 | 6.5 | 94 | 175 | – | – | – | 3800
6 | CS(=O)(=O)Nc1ccc2c(c1)C(=O)CC1(CCN(CCc3ccccn3)CC1)O2 | > 2000 | 3840 | > 2000 | – | – | – | 33
7 | c1ccc2c(c1)CCC1(CCN(CCc3cccc4ccccc34)CC1)O2 | 56 | 99 | 55 | – | – | – | –
8 | Cc1[nH]c2ccccc2c1CCN1CCC2(CC1)CC(=O)c1ccc(NS(C)(=O)=O)cc1O2 | 8 | 115 | 221 | – | – | – | > 30000
9 | O=C1CC2(CCN(CCc3ccccn3)CC2)Oc2ccccc21 | 793 | 1520 | 1290 | – | – | – | 160
10 | CS(=O)(=O)Nc1ccc2c(c1)OC1(CCN(CCc3cccc4ccccc34)CC1)CC2=O | 20 | 136 | 149 | – | – | – | 9000

Stronger by Ki [2], values ahead:

Row | Ki [1] [nM] | Ki [2] [nM] | Ki [3] [nM] | Ki [4] [nM] | Ki [5] [nM] | Ki [6] [nM] | SMILES | EC25 (Mustela putorius furo) [nM]
11 | 13 | 53 | 24 | – | – | – | O=C1CC2(CCN(CCc3cccc4ccccc34)CC2)Oc2ccc(NS(=O)(=O)Cc3ccccc3)cc21 | > 30000
12 | 8 | 24 | 53 | – | – | – | Cn1cnc(S(=O)(=O)Nc2ccc3c(c2)C(=O)CC2(CCN(CCc4cccc5ccccc45)CC2)O3)c1 | > 30000
13 | 45 | 60 | 137 | – | – | – | O=C1OC2(CCN(CCc3cccc4ccccc34)CC2)Cc2ccccc21 | –
14 | – | 18 | 24 | 0.69 | 10 | 10 | Cc1noc(C)c1S(=O)(=O)Nc1ccc2c(c1)C(=O)CC1(CCN(CCc3cccc4ccccc34)CC1)O2 | > 30000
